The record followed here is patent publication US12630498B2 (Genzyme Corporation, priority 2019, dated 2026).

pEC50: −log10 of the molar value.

As a reminder, the pEC50 is the EC50 on a negative log10 scale, so that one unit is a factor of ten. A low value points to a high EC50. One may read the Emax as the greatest response seen or fitted, relative to the assay's reference.

The target of the experiment is T1, human Cystic Fibrosis Transmembrane Conductance Regulator (CFTR) harboring the ΔF508 mutation (Homo sapiens, UniProt P13569, DEL508-508).
T1 construct: expressed in transfected cells; host or cells: H441 carcinoma line (G418-selected)
Kind of experiment: H441 cell ΔF508-CFTR-HRP cell surface assay (Emax and EC50). The class given is cell-based. The following applies: for Emax: NCI-H441, NA = Not active. From the text:
Example 315: H441 Cell Emax and EC50 Two cell lines were used, the H441 carcinoma line and the CFHBE41o- (41o-) human bronchial epithelial line. Both cell lines expressed human Cystic Fibrosis Transmembrane Conductance Regulator (CFTR) harboring the ΔF508 mutation and with an in-frame fusion in CFTR extracellular loop 4 of Horse Radish Peroxidase (HRP) under control of the CMV promoter. In the presence of the HRP tag, ΔF508-CFTR transported to the cell surface was detectable upon addition of an HRP substrate (Luminata Forte). Both cell types were cultivated at 37° C. with CO2. […] For both cell types, the medium was changed every other day unless the culture was at low % confluence. Cells were used for the assays at 75% confluence. To a polypropylene (PP) 384-well plate, 15 pls DMSO was added to all wells in columns 1-22 and 24 (low Control). 15 μls of 260 μM VX809 (Lumacaftor), Selleckchem […], was added to column 23 wells (high Control). 15 pls of 10 mM test compound or VX809 (control) were added to wells of row A. Serial dilutions of Row A compound were performed 2×15 pls in rows A through 0 (15-point). A PP, 384-well plate containing the appropriate cell culture medium was prepared for each assay plate with 100 pls per well. For the doxycycline-induced 41o-cells, doxycycline for both the assay plate and the medium dilution plate was added at 0.0005 mg/ml to the medium. Both cell lines were plated for the assay at 30 pls per 384-well at 3.4×10 e^5 cells per ml ( 10K cells/well). H441 cells were plated on opaque, white, Corning plate 3704. 41o-cells were plated on collagen-coated opaque, white, Corning plate 356665. For 41o-cells, doxycycline was added to the medium. Using FX (Beckman) protocol, 10 pls diluted compound or medium was added per well to the Assay Plate as: 2 pls DMSO Dilution plate well was diluted in 100 pls of the Medium Dilution Plate well, mixed, and 10 pls was transferred to the Assay Plate. The final assay dilution series was 24.5, 12.3, 6.1, 3.1, 1.5, 0.8, 0.4, 0.2, 0.1, 0.05, 0.02, 0.01, 0.006, 0.003, 0.001 and 0 μM. The 41o-assay plates were incubated at 37° C. w/CO2, the H441 assay plates were incubated at 27° C. w/CO2, each overnight for two nights. After being brought to room temperature, the assay plate liquid was removed. 30 uls of Luminata Forte (Millipore ELLUF0100) was added per well and incubated at room temperature for 10 min. The plates were then read on a Topcount, protocol LumiMatti (CPS, luminescence). The data was analyzed for % of maximum, maximum VX809 signal, and EC50 using Pearl and SPEED tools.

T1 sequence (P13569 with tags, fused parts or gaps DEL508-508): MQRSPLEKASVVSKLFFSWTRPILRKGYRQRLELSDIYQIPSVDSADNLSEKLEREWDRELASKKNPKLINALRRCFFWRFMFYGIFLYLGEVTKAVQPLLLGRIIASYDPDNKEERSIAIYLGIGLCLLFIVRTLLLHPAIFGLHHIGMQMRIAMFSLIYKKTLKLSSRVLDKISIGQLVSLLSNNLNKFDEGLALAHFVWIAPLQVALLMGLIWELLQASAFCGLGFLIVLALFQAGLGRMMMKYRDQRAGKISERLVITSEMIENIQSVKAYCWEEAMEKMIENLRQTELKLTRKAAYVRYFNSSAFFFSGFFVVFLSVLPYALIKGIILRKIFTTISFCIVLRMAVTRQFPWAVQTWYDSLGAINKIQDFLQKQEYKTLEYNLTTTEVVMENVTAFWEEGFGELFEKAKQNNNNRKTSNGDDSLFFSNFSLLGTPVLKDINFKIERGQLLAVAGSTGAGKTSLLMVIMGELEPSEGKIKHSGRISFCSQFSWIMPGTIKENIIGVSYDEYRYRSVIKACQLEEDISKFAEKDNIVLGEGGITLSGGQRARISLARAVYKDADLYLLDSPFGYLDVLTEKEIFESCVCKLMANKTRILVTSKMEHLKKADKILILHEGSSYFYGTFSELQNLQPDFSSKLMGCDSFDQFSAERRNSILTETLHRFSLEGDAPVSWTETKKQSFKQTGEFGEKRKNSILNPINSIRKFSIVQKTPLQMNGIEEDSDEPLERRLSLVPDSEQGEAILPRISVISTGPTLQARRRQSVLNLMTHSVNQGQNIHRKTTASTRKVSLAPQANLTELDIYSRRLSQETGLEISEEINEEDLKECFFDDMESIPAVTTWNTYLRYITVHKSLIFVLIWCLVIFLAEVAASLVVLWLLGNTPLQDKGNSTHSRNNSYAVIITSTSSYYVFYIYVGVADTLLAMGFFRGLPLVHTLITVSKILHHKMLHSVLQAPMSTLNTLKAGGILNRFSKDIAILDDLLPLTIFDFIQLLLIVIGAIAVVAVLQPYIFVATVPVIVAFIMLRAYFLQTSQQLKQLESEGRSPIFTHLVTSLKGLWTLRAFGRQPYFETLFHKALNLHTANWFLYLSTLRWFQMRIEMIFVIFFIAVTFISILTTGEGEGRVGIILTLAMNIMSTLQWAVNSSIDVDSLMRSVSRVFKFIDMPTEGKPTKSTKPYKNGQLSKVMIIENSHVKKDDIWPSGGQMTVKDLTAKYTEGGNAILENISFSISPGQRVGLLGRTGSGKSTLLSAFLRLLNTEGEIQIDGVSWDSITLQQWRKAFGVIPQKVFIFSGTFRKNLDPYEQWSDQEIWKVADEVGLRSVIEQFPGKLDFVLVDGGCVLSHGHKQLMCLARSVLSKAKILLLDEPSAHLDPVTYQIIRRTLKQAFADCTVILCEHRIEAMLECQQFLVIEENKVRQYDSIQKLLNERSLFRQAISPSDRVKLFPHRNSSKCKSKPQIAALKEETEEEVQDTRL

The compound `CC(C)(C)[C@H](NC(=O)c1ccc2ccccc2c1OCc1ccc(S(C)(=O)=O)cc1)C(=O)O` [Example 66, (S)-3,3-dimethyl-2-(1-((4-(methylsulfonyl)benzyl)oxy)-2-naphthamido)butanoic Acid] gave a negative-log EC50 (pEC50) of 5.68 and a maximum response (Emax) of 12.8%.

On to `O=C(N[C@@H](Cc1ccccc1)C(=O)O)c1ccc2ccccc2c1OCc1ccc(Cl)cc1` [Example 98, (1-((4-chlorobenzyl)oxy)-2-naphthoyl)-L-phenylalanine], for which the maximum response (Emax) worked out at 6%. For the compound `COc1ccc2c(OCc3ccc(C(F)(F)F)cc3)c(C(=O)N[C@H](C(=O)O)C3CCCC3)ccc2c1` [Example 160, (S)-2-cyclopentyl-2-(6-methoxy-1-((4-(trifluoromethyl)benzyl)oxy)-2-naphthamido)acetic Acid], the negative-log EC50 (pEC50) is 5.48 and the maximal effect (Emax) was determined as 47.2%. In turn, `CC(C)(C)[C@H](NC(=O)c1ccc2ccc(C(F)(F)F)cc2c1OCc1ccc(C(F)(F)F)cc1)C(=O)O` [compound 293, (S)-3,3-dimethyl-2-(7-(trifluoromethyl)-1-((4-(trifluoromethyl)benzyl)oxy)-2-naphthamido)butanoic Acid] had a pEC50 of 6.52 and a maximum response (Emax) of 327%. In turn, `CC(OCc1ccccc1)[C@H](NC(=O)c1ccc2cc(F)ccc2c1OCc1ccc(OC(F)(F)F)cc1)C(=O)O` (stereo in doubt) [Example 192, O-benzyl-N-(6-fluoro-1-((4-(trifluoromethoxy)benzyl)oxy)-2-naphthoyl)-L-allothreonine] gave an Emax of 10.6%. `COc1ccc2c(OCc3ccc(SC(F)(F)F)cc3)c(C(=O)N[C@H](C(=O)O)C(C)(C)C)ccc2c1` [Example 63, (S)-2-(6-methoxy-1-((4-((trifluoromethyl)thio)benzyl)oxy)-2-naphthamido)-3,3-dimethylbutanoic Acid] gave a pEC50 of 5.82 and an Emax of 43.6%.

The compound `Cc1ccc2ccc(C(=O)N[C@@H](C(=O)O)C(C)(C)C)c(OCc3ccc(OC(F)(F)F)cc3)c2c1` [Example 289, (R)-3,3-dimethyl-2-(7-methyl-1-((4-(trifluoromethoxy)benzyl)oxy)-2-naphthamido)butanoic Acid] showed a negative-log EC50 (pEC50) of 5.82 and an Emax of 109%.

For the compound `CC(Oc1c(C(=O)N[C@@H](Cc2ccccc2)C(=O)O)ccc2ccccc12)c1ccc(Br)cc1` (stereo partly drawn) [Example 123, (1-(1-(4-bromophenyl)ethoxy)-2-naphthoyl)-L-phenylalanine], the Emax is 4%. `O=C(N[C@H](C(=O)O)C(c1ccccc1)c1ccccc1)c1ccc2cc(F)ccc2c1OCc1ccc(Cl)c(Cl)c1` [Example 209, (S)-2-(1-((3,4-dichlorobenzyl)oxy)-6-fluoro-2-naphthamido)-3,3-diphenylpropanoic Acid] showed a pEC50 of 6.40 and an Emax of 71%. The matching figures for `CC(C)C#CCOc1c(C(=O)N[C@H](C(=O)O)C(C)(C)C)ccc2ccccc12` [Example 235, (2S)-3,3-dimethyl-2-[[1-(4-methylpent-2-ynoxy)naphthalene-2-carbonyl]amino]butanoic Acid]: 4.82 and 211%.

For `CC(C)C#CCOc1c(C(=O)N[C@H](C(=O)O)C(C)(C)C)ccc2cc(F)ccc12` [Example 224, (2S)-2-[[6-fluoro-1-(4-methylpent-2-ynoxy)naphthalene-2-carbonyl]amino]-3,3-dimethyl-butanoic Acid], the pEC50 was 4.89 and the maximal effect (Emax) was found to be 119%. The corresponding values for `COC(=O)[C@H](Cc1ccccc1)NC(=O)c1ccc2ccccc2c1OCc1ccc(Cl)c(Cl)c1` [Example 101, Methyl (1-((3,4-dichlorobenzyl)oxy)-2-naphthoyl)-L-phenylalaninate] are 5.17 and 79.1%. The matching figures for `CCC(C)(C)[C@H](NC(=O)c1ccc2c(F)cc(C)cc2c1OCc1ccc(C(F)(F)F)cc1)C(=O)O` [Example 272, (2S)-2-[[5-fluoro-7-methyl-1-[[4-(trifluoromethyl)phenyl]methoxy]-naphthalene-2-carbonyl]amino]-3,3-dimethyl-pentanoic Acid]: 6.70 and 392%. The matching figures for `C[C@@H](OCc1ccccc1)C(NC(=O)c1ccc2ccccc2c1OCC1CC2CCC1C2)C(=O)O` (stereo partly drawn) [Example 147, (3R)-3-(benzyloxy)-2-(1-(bicyclo[2.2.1]heptan-2-ylmethoxy)-2-naphthamido)butanoic Acid]: 4.77 and 68.9%. With `CC1([C@H](NC(=O)c2ccc3ccc(C(F)(F)F)cc3c2OCc2ccc(C(F)(F)F)cc2)C(=O)O)CC1` [compound 298, (S)-2-(1-methylcyclopropyl)-2-(7-(trifluoromethyl)-1-((4-(trifluoromethyl)benzyl)oxy)-2-naphthamido)acetic Acid], the negative logarithm of the EC50 (pEC50) is 6.15 and the Emax was 153%. The corresponding values for `COc1ccc2c(OCc3ccc(C(F)(F)F)cc3)c(C(=O)N[C@@H](CC(C)(C)C)C(=O)O)ccc2c1` [Example 161, (S)-2-(6-methoxy-1-((4-(trifluoromethyl)benzyl)oxy)-2-naphthamido)-4,4-dimethylpentanoic Acid] are 5.49 and 47.7%.

Regarding `CC(C)(C)C[C@H](NC(=O)c1ccc2cc(F)ccc2c1OCc1ccc(S(F)(F)(F)(F)F)cc1)C(=O)O` [Example 112, (S)-2-(6-fluoro-1-((4-(pentafluoro-16-sulfanyl)benzyl)oxy)-2-naphthamido)-4,4-dimethylpentanoic Acid], the negative logarithm of the EC50 (pEC50) is 5.72 and the Emax turned out to be 58.1%. Take `COCC[C@H](NC(=O)c1ccc2ccccc2c1OCc1ccc(C(F)(F)F)cc1)C(=O)O` [Example 137, O-methyl-N-(1-((4-(trifluoromethyl)benzyl)oxy)-2-naphthoyl)-L-homoserine]: the pEC50 was 4.79 and the Emax came to 38.4%. For `O=C(NC(C(=O)O)C(C(F)(F)F)C(F)(F)F)c1ccc2cc(F)ccc2c1OCc1ccc(C(F)(F)F)cc1` (stereo not shown) [Example 182, 4,4,4-trifluoro-2-(6-fluoro-1-((4-(trifluoromethyl)benzyl)oxy)-2-naphthamido)-3-(trifluoromethyl)butanoic Acid], the negative-log EC50 (pEC50) is 5.40 and the Emax was found to be 31.4%. In turn, `O=C(N[C@H](C(=O)O)C12CC(C(F)(F)F)(C1)C2)c1ccc2cc(F)ccc2c1OCc1ccc(C(F)(F)F)cc1` [Example 15, (S)-2-(6-fluoro-1-((4-(trifluoromethyl)benzyl)oxy)-2-naphthamido)-2-(3-(trifluoromethyl)bicyclo[1.1.1]pentan-1-yl)acetic Acid] showed a pEC50 of 5.77 and an Emax of 48.4%.

As for `CC(C)(C)C#CCOc1c(C(=O)N[C@H](C(=O)O)C(C)(C)C)ccc2cc(F)ccc12` [Example 266, (2S)-2-[[1-(4,4-dimethylpent-2-ynoxy)-6-fluoro-naphthalene-2-carbonyl]amino]-3,3-dimethyl-butanoic Acid], the pEC50 is 5.27 and the Emax stood at 149%. `CCC(C)(C)[C@H](NC(=O)c1ccc2cc(OC)ccc2c1OCc1ccc(C(F)(F)F)cc1)C(=O)O` [Example 83, (S)-2-(6-methoxy-1-((4-(trifluoromethyl)benzyl)oxy)-2-naphthamido)-3,3-dimethylpentanoic Acid] had a negative-log EC50 (pEC50) of 5.85 and a maximal effect (Emax) of 58.9%. Compound `CC(C)(SCC1CC1(F)F)[C@H](NC(=O)c1ccc2ccccc2c1OCc1ccc(S(C)(=O)=O)cc1)C(=O)O` (stereo partly drawn) [Example 166, (2R)-3-(((2,2-difluorocyclopropyl)methyl)thio)-3-methyl-2-(1-((4-(methylsulfonyl)benzyl)oxy)-2-naphthamido)butanoic Acid] registered an Emax of 6.6%. For the compound `CC(C)(C)C#CCOc1c(C(=O)N[C@H](C(=O)O)C(C)(C)C)ccc2ccccc12` [Example 267, (2S)-2-[[1-(4,4-dimethylpent-2-ynoxy)naphthalene-2-carbonyl]amino]-3,3-dimethyl-butanoic Acid], the pEC50 is 5.47 and the Emax turned out to be 288%. The matching figures for `CC(Oc1c(C(=O)N[C@@H](Cc2ccccc2)C(=O)O)ccc2ccccc12)c1ccc(C(F)(F)F)cc1` (stereo partly drawn) [Example 124, (1-(1-(4-(trifluoromethyl)phenyl)ethoxy)-2-naphthoyl)-L-phenylalanine]: 5.89 and 10.5%.
